How the values were obtained:
[1] = system: Spodoptera frugiperda; assay: Spodoptera frugiperda test (SPODFR spray treatment); format: in vivo; conditions: application rate 100 g/ha; maize leaf discs; after 7 days
How it was run: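 Mortality read-out at 7 days, given as % efficacy, where 100% means every caterpillar dead and 0% none. Caterpillars were placed on dried maize leaf discs that had been sprayed with test formulation. That formulation was an acetone/dimethylformamide concentrate diluted in emulsifier-containing water.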

[2] = logP (HPLC-MS); format: physicochemical; conditions: HPLC, reversed-phase column (C18), 43° C.
[3] = system: Lucilia cuprina larvae; assay: Lucilia cuprina test (LUCICU); format: in vivo; conditions: application rate 100 ppm; treated horse meat; after 2 days
Description: (§1) Lucilia cuprina Test (LUCICU) Solvent: dimethyl sulphoxide To prepare an appropriate active ingredient formulation, 10 mg of active ingredient are mixed with 0.5 ml of dimethyl sulphoxide and the concentrate is diluted with water to the desired concentration. Vessels containing horse meat treated with the active ingredient formulation of the desired concentration are populated with about 20 Lucilia cuprina larvae. After 2 days, the kill in % is determined. 100% means that all of the larvae have been killed; 0% means that none of the larvae have been killed.

[4] = system: Phaedon cochleariae; assay: Phaedon test (PHAECO spray treatment); format: in vivo; conditions: application rate 100 g/ha; Chinese cabbage leaf discs; after 7 days
How it was run: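 Larval mortality was assessed 7 days after Phaedon cochleariae larvae were placed on dried, spray-treated Brassica pekinensis leaf discs. The formulation was an acetone/dimethylformamide concentrate with alkylaryl polyglycol ether emulsifier, diluted in emulsifier-containing water. Results are given as % kill, from 0 (no larvae dead) to 100 (all dead).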

[5] = system: adult Musca domestica; assay: Musca domestica test (MUSCDO); format: in vivo; conditions: application rate 100 ppm; treated sponge; after 2 days
Description: as §1, with “Musca domestica” for “Lucilia cuprina”, “(MUSCDO)” for “(LUCICU)”, “a sponge” for “horse meat”, “adult Musca domestica.” for “about 20 Lucilia cuprina larvae.”, “determined” for “determined.”, “flies” for “larvae”

[6] = system: Tetranychus urticae; assay: Tetranychus test, OP-resistant (TETRUR spray treatment); format: in vivo; conditions: bean leaf discs, after 6 days
How it was run: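 Bean leaf discs infested with all stages of OP-resistant T. urticae sprayed with compound formulated in acetone/DMF plus alkylaryl polyglycol ether emulsifier, diluted in water. Efficacy (% mites killed) scored after 6 days.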

[7] = system: Boophilus microplus; assay: Boophilus microplus test (BOOPMI injection); format: in vivo; conditions: application rate 20 μg/animal; injected into the abdomen; after 7 days
Description: Boophilus microplus Test (BOOPMI Injection) Solvent: dimethyl sulphoxide To prepare an appropriate active ingredient formulation, 10 mg of active ingredient are mixed with 0.5 ml of solvent and the concentrate is diluted with solvent to the desired concentration. The active ingredient solution is injected into the abdomen (Boophilus microplus), and the animals are transferred into dishes and stored in a climate-controlled room. After 7 days, the efficacy in % is determined. The activity is assessed by laying of fertile eggs. 100% means that none of the ticks has laid any fertile eggs.

[8] = system: Ctenocephalides felis; assay: Ctenocephalides felis oral (CTECFE); format: in vivo; conditions: application rate 100 ppm in citrated cattle blood; after 2 days
Description: Ctenocephalides felis Oral ([…]) Solvent: 1 part by weight of dimethyl sulphoxide For the purpose of preparing an appropriate active ingredient formulation, 10 mg of active ingredient are mixed with 0.5 ml of dimethyl sulphoxide. A portion of the concentrate is diluted with citrated cattle blood, and the desired concentration is prepared. About 20 unfed adult fleas (Ctenocephalides felis) are placed into a chamber which is closed at the top and bottom with gauze. A metal cylinder whose bottom end is closed with Parafilm is placed onto the chamber. The cylinder contains the blood/active ingredient formulation, which can be imbibed by the fleas through the Parafilm membrane. After 2 days, the kill in % is determined 100% means that all of the fleas have been killed; 0% means that none of the fleas have been killed.

[9] = acidic range pH 2.7, acetonitrile (0.1% formic acid)/water gradient, calibration with unbranched alkan-2-ones
[10] = acidic range pH 2.7, EEC directive 79/831 Annex V.A8, two values = both regioisomers (G = N)

CCn1c(C(=O)NC(c2ccc(F)c(C(F)(F)F)c2)C(F)(F)F)cc2cc(C(=O)NC3CC3)c(Cl)cc21 (centres unmarked) [Compound 3]
3.93: log p [2, 9]
100%: efficacy in % [1] | efficacy (kill in %) [3] | efficacy in % [4] | efficacy (kill in %) [5] | efficacy in % ([6]; application rate 500 g/ha) | efficacy (laying of fertile eggs) [7] | efficacy (kill in %) [8]

CCn1c(C(=O)NC(c2ccc(F)c(Br)c2)C(F)(F)F)cc2cc(C(=O)NC3(C#N)CC3)c(Cl)cc21 (centres unmarked) [Compound 42]
100%: efficacy in % [1] | efficacy (kill in %) [3] | efficacy in % [4] | efficacy (kill in %) [5] | efficacy in % ([6]; application rate 100 g/ha) | efficacy (laying of fertile eggs) [7] | efficacy (kill in %) [8]
3.76: log p [2, 9]

C#CCn1c(C(=O)NC(c2ccc(F)c(Br)c2)C(F)(F)F)cc2cc(C(=O)NC3(C#N)CC3)c(Cl)cc21 (centres unmarked) [Compound 62]
100%: efficacy in % [1] | efficacy (kill in %) [3] | efficacy in % [4] | efficacy (laying of fertile eggs) [7] | efficacy (kill in %) [8]
90%: efficacy in % ([6]; application rate 100 g/ha)
80%: efficacy (kill in %) [5]
3.57: log p [2, 9]

CCn1c(C(=O)NC(c2cc(Cl)c(Cl)c(Cl)c2)C(F)(F)F)cc2cc(C(=O)NC3(C#N)CC3)c(Cl)cc21 (centres unmarked) [Compound 275]
100%: efficacy in % [1] | efficacy (kill in %) [3] | efficacy in % [4] | efficacy (kill in %) [5] | efficacy in % ([6]; application rate 100 g/ha) | efficacy (laying of fertile eggs) [7] | efficacy (kill in %) [8]
4.43: log p [2, 9]

C#CCn1c(C(=O)NC(c2ccc(F)c(C(F)(F)F)c2)C(F)(F)F)cc2cc(C(=O)NC3(C#N)CC3)c(Cl)cc21 (centres unmarked) [Compound 61]
3.65: log p [2, 9]
100%: efficacy in % [1] | efficacy (kill in %) [3] | efficacy in % [4] | efficacy (kill in %) [5] | efficacy in % ([6]; application rate 100 g/ha) | efficacy (laying of fertile eggs) [7] | efficacy (kill in %) [8]

Cn1c(C(=O)NC(c2ccc(F)c(Br)c2)C(F)(F)F)cc2cc(C(=O)NC3(C#N)CC3)c(Cl)cc21 (centres unmarked) [Compound 52]
100%: efficacy in % [1] | efficacy (kill in %) [3] | efficacy in % [4] | efficacy (kill in %) [5] | efficacy in % ([6]; application rate 100 g/ha) | efficacy (laying of fertile eggs) [7] | efficacy (kill in %) [8]
3.44: log p [2, 9]

Cn1c(C(=O)NC(c2ccc(F)c(C(F)(F)F)c2)C(F)(F)F)cc2cc(C(=O)NC3(C#N)CC3)c(Cl)cc21 (centres unmarked) [Compound 50]
3.52: log p [2, 9]
100%: efficacy in % [1] | efficacy (kill in %) [3] | efficacy in % [4] | efficacy (kill in %) [5] | efficacy in % ([6]; application rate 100 g/ha) | efficacy (laying of fertile eggs) [7] | efficacy (kill in %) [8]

CC#CCn1c(C(=O)NC(c2cccc(C(F)(F)F)c2)C(F)(F)F)cc2cc(C(=O)NC3(C#N)CC3)c(Cl)cc21 (centres unmarked) [Compound 285]
100%: efficacy in % [1] | efficacy (kill in %) [3] | efficacy in % [4] | efficacy in % ([6]; application rate 100 g/ha) | efficacy (laying of fertile eggs) [7] | efficacy (kill in %) [8]
3.87: log p [2, 10]
90%: efficacy (kill in %) [5]

CCCn1c(C(=O)NC(c2cccc(C(F)(F)F)c2)C(F)(F)F)cc2cc(C(=O)NC3(C#N)CC3)c(Cl)cc21 (centres unmarked) [Compound 288]
4.03: log p [2, 10]
100%: efficacy in % [1] | efficacy (kill in %) [3] | efficacy in % [4] | efficacy (kill in %) [5] | efficacy in % ([6]; application rate 100 g/ha) | efficacy (laying of fertile eggs) [7] | efficacy (kill in %) [8]

CCn1c(C(=O)NC(c2cc(Cl)cc(Cl)c2)C(F)(F)F)cc2cc(C(=O)NC3(C#N)CC3)c(C)cc21 (centres unmarked) [Compound 195]
4.09: log p [2, 9]
100%: efficacy in % [1] | efficacy (kill in %) [3] | efficacy in % [4] | efficacy (kill in %) [5] | efficacy in % ([6]; application rate 100 g/ha) | efficacy (laying of fertile eggs) [7] | efficacy (kill in %) [8]

From patent publication US9107411B2, “Indolecarboxamides and benzimidazolecarboxamides as insecticides and acaricides” (BAYER INTELLECTUAL PROPERTY GMBH, priority 2011, dated 2015)
